Data published in patent US11168086B2, “Methods of synthesizing pyrazine compounds” (Hoffmann-La Roche Inc., priority 2015, dated 2021).

Each molecule was assayed on HBV (assay: HBV inhibition assay: anti-HBV activity in vitro in HepG2.2.15 cells (extracellular HBV DNA by qPCR)). Details: Hepatitis B virus, 120 h, five days after compound treatment, extracellular HBV DNA in culture supernatant by qPCR, concentration at which HBV replication is inhibited by 50%.
Assay type: cell-based
Procedure, shortened: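 HepG2.2.15 cells (stably carrying HBV genome) treated with half-log serially diluted compounds at 0.5% DMSO final for five days. Extracellular HBV DNA in supernatant quantified by qPCR after Proteinase K digestion; EC50 is concentration giving 50% inhibition of replication.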

Going from `C[C@H]1Cn2ncc(N3CC(C)(C)OC3=O)c2CN1C(=O)Nc1cc(F)c(F)c(F)c1` [Example 250, (6S)-3-(5,5-dimethyl-2-oxo-oxazolidin-3-yl)-6-methyl-N-(3,4,5-trifluorophenyl)-6,7-dihydro-4H-pyrazolo[1,5-a]pyrazine-5-carboxamide] to `C[C@H]1Cn2ncc(N3CC(C)(C)OC3=O)c2CN1C(=O)Nc1cc(F)c(F)c(C(F)F)c1` [Example 276, (6S)—N-[3-(difluoromethyl)-4,5-difluoro-phenyl]-3-(5,5-dimethyl-2-oxo-oxazolidin-3-yl)-6-methyl-6,7-dihydro-4H-pyrazolo[1,5-a]pyrazine-5-carboxamide], the EC50 falls from 21 nM to 6 nM (3.5-fold). The second is the more potent here.

`C[C@H]1[C@H](C)n2ncc(N3CCCC3=O)c2CN1C(=O)Nc1cc(F)c(F)c(F)c1` [Example 251, (6S,7S)-6,7-dimethyl-3-(2-oxopyrrolidin-1-yl)-N-(3,4,5-trifluorophenyl)-6,7-dihydro-4H-pyrazolo[1,5-a]pyrazine-5-carboxamide] and `C[C@@H]1[C@H](C)N(C(=O)Nc2cc(F)c(F)c(F)c2)Cc2c(N3CCCC3=O)cnn21` [Example 261, (6S,7R)-6,7-dimethyl-3-(2-oxopyrrolidin-1-yl)-N-(3,4,5-trifluorophenyl)-6,7-dihydro-4H-pyrazolo[1,5-a]pyrazine-5-carboxamide] are within 1.5-fold of each other in EC50: 45 nM for the first, 40 nM for the second.

First: C[C@H]1Cn2ncc(N3CC4(CC4)CC3=O)c2CN1C(=O)Nc1cc(F)c(F)c(F)c1 [Example 252, (6S)-6-methyl-3-(6-oxo-5-azaspiro[2.4]heptan-5-yl)-N-(3,4,5-trifluorophenyl)-6,7-dihydro-4H-pyrazolo[1,5-a]pyrazine-5-carboxamide]
Second: C[C@H]1Cn2ncc(N3CC[C@H](O)C3=O)c2CN1C(=O)Nc1cc(F)c(F)c(F)c1 [Example 262, (6S)-3-[(3S)-3-hydroxy-2-oxo-pyrrolidin-1-yl]-6-methyl-N-(3,4,5-trifluorophenyl)-6,7-dihydro-4H-pyrazolo[1,5-a]pyrazine-5-carboxamide]
The EC50 of the first is 4.3-fold lower: 15 nM for the first, 65 nM for the second.

First: C[C@H]1Cn2ncc(N3CC4CC4C3=O)c2CN1C(=O)Nc1cc(F)c(F)c(F)c1 (stereo partly drawn) [Example 253, (6S)-6-methyl-3-(2-oxo-3-azabicyclo[3.1.0]hexan-3-yl)-N-(3,4,5-trifluorophenyl)-6,7-dihydro-4H-pyrazolo[1,5-a]pyrazine-5-carboxamide]
Second: C[C@H]1Cn2ncc(N3CC(C(F)(F)F)CC3=O)c2CN1C(=O)Nc1cc(F)c(F)c(F)c1 (stereo partly drawn) [Example 259, (6S)-6-methyl-3-[2-oxo-4-(trifluoromethyl)pyrrolidin-1-yl]-N-(3,4,5-trifluorophenyl)-6,7-dihydro-4H-pyrazolo[1,5-a]pyrazine-5-carboxamide]
The EC50 of the first is 1.9-fold higher: 44 nM for the first, 23 nM for the second. The second is the more potent here.

`CC1CC(=O)N(c2cnn3c2CN(C(=O)Nc2ccc(F)c(Cl)c2)[C@@H](C)C3)C1` (stereo partly drawn) [Example 254, (6S)—N-(3-chloro-4-fluoro-phenyl)-6-methyl-3-(4-methyl-2-oxo-pyrrolidin-1-yl)-6,7-dihydro-4H-pyrazolo[1,5-a]pyrazine-5-carboxamide] and `C[C@H]1Cn2ncc(N3CC(C(F)(F)F)CC3=O)c2CN1C(=O)Nc1ccc(F)c(Cl)c1` (stereo partly drawn) [Example 255, (6S)—N-(3-chloro-4-fluoro-phenyl)-6-methyl-3-[2-oxo-4-(trifluoromethyl)pyrrolidin-1-yl]-6,7-dihydro-4H-pyrazolo[1,5-a]pyrazine-5-carboxamide] are within 1.5-fold of each other in EC50: 39 nM for the first, 28 nM for the second.

First: C[C@H]1Cn2ncc(N3CCC(O)C3=O)c2CN1C(=O)Nc1ccc(F)c(Cl)c1 (stereo partly drawn) [Example 256, (6S)—N-(3-chloro-4-fluoro-phenyl)-3-(3-hydroxy-2-oxo-pyrrolidin-1-yl)-6-methyl-6,7-dihydro-4H-pyrazolo[1,5-a]pyrazine-5-carboxamide]
Second: C[C@H]1Cn2ncc(N3CC(C)(C)CC3=O)c2CN1C(=O)Nc1ccc(F)c(Cl)c1 [Example 257, (6S)—N-(3-chloro-4-fluoro-phenyl)-3-(4,4-dimethyl-2-oxo-pyrrolidin-1-yl)-6-methyl-6,7-dihydro-4H-pyrazolo[1,5-a]pyrazine-5-carboxamide]
The EC50 of the first is 4.5-fold higher: 68 nM for the first, 15 nM for the second.

Compared with `C[C@H]1Cn2ncc(N3CC(COc4ncccn4)CC3=O)c2CN1C(=O)Nc1cc(F)c(F)c(F)c1` (stereo partly drawn) [Example 267, (6S)-6-methyl-3-[2-oxo-4-(pyrimidin-2-yloxymethyl)pyrrolidin-1-yl]-N-(3,4,5-trifluorophenyl)-6,7-dihydro-4H-pyrazolo[1,5-a]pyrazine-5-carboxamide], `C[C@H]1Cn2ncc(N3CC(Nc4ncccn4)CC3=O)c2CN1C(=O)Nc1cc(F)c(F)c(F)c1` (stereo partly drawn) [Example 269, (6S)-6-methyl-3-[2-oxo-4-(pyrimidin-2-ylamino)pyrrolidin-1-yl]-N-(3,4,5-trifluorophenyl)-6,7-dihydro-4H-pyrazolo[1,5-a]pyrazine-5-carboxamide] is 3.2-fold lower in EC50: 39 nM for the first, 12 nM for the second.

Going from `C[C@H]1Cn2ncc(N3CC(Cn4cccn4)CC3=O)c2CN1C(=O)Nc1cc(F)c(F)c(F)c1` (stereo partly drawn) [Example 268, (6S)-6-methyl-3-[2-oxo-4-(pyrazol-1-ylmethyl)pyrrolidin-1-yl]-N-(3,4,5-trifluorophenyl)-6,7-dihydro-4H-pyrazolo[1,5-a]pyrazine-5-carboxamide] to `C[C@H]1Cn2ncc(N3CC(Nc4ncncc4F)CC3=O)c2CN1C(=O)Nc1cc(F)c(F)c(F)c1` (stereo partly drawn) [Example 270, (6S)-3-[4-[(5-fluoropyrimidin-4-yl)amino]-2-oxo-pyrrolidin-1-yl]-6-methyl-N-(3,4,5-trifluorophenyl)-6,7-dihydro-4H-pyrazolo[1,5-a]pyrazine-5-carboxamide], the EC50 falls from 96 nM to 17 nM (5.6-fold).

`C[C@H]1Cn2ncc(N3CCOCC3=O)c2CN1C(=O)Nc1cc(F)c(F)c(C(F)F)c1` [Example 271, (6S)—N-[3-(difluoromethyl)-4,5-difluoro-phenyl]-6-methyl-3-(3-oxomorpholin-4-yl)-6,7-dihydro-4H-pyrazolo[1,5-a]pyrazine-5-carboxamide] and `C[C@H]1[C@H](C)n2ncc(N3CCOCC3=O)c2CN1C(=O)Nc1cc(F)c(F)c(F)c1` [Example 274, (6S,7S)-6,7-dimethyl-3-(3-oxomorpholin-4-yl)-N-(3,4,5-trifluorophenyl)-6,7-dihydro-4H-pyrazolo[1,5-a]pyrazine-5-carboxamide] are within 1.5-fold of each other in EC50: 38 nM for the first, 40 nM for the second.

Compared with `C[C@H]1Cn2ncc(N3CC(C)(C)OC3=O)c2CN1C(=O)Nc1ccnc(C(F)F)c1` [Example 272, (6S)—N-[2-(difluoromethyl)-4-pyridyl]-3-(5,5-dimethyl-2-oxo-oxazolidin-3-yl)-6-methyl-6,7-dihydro-4H-pyrazolo[1,5-a]pyrazine-5-carboxamide], `C[C@H]1Cn2ncc(N3CN(C(=O)c4ccccc4)CC3=O)c2CN1C(=O)Nc1cc(F)c(F)c(F)c1` [Example 275, (6S)-3-(3-benzoyl-5-oxo-imidazolidin-1-yl)-6-methyl-N-(3,4,5-trifluorophenyl)-6,7-dihydro-4H-pyrazolo[1,5-a]pyrazine-5-carboxamide] is 1.6-fold lower in EC50: 104 nM for the first, 64 nM for the second. The second is the more potent here.

For `C[C@H]1[C@H](C)n2ncc(N3CCNC3=O)c2CN1C(=O)Nc1cc(F)c(F)c(F)c1` [Example 273, (6S,7S)-6,7-dimethyl-3-(2-oxoimidazolidin-1-yl)-N-(3,4,5-trifluorophenyl)-6,7-dihydro-4H-pyrazolo[1,5-a]pyrazine-5-carboxamide], the EC50 was 39 nM.
